Assay results from publication PMC10794144, “A novel antibiotic class targeting the lipopolysaccharide transporter” (Nature, 2024).
Values after ≈ are worked out from the molar mass of the structure shown.

What was measured:
A. baumannii = assay: microbe, parasite or virus in culture
Outline: (§1)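 Values come from CLSI-guided (M07, M100) broth microdilution in CAMHB. Endpoint: lowest concentration halting growth, judged by naked eye or by OD600 plateau.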

[1] = system: K. pneumoniae ATCC 700603; assay: microbe, parasite or virus in culture
Outline: as §1

`CN1C(=O)[C@H](CCCCN)NC(=O)[C@H](CCCN)NCc2cccnc2Sc2c(Cl)ccc(-c3ccc(C(=O)O)cc3)c2CNC(=O)[C@@H]1Cc1c[nH]c2ccccc12` [RO7202110] was tested, and the MIC range (A. baumannii; 10 MDR isolates, CAMHB, MCPs read at 80% growth inhibition) was ≤0.06 − 0.12 mg l^−1, the MIC90 (A. baumannii; Acinetobacter baumannii) was 0.12 µg/mL (≈ 0.145 µM) and the MIC (A. baumannii; Acinetobacter baumannii, ATCC17978, ATCC 17978, CAMHB, one replicate, MCPs read at 80% growth inhibition) was no more than 0.06 µg/mL. For the same compound, the MIC (A. baumannii; Acinetobacter baumannii, ATCC19606, ATCC 19606, CAMHB, MCPs read at 80% growth inhibition) was no more than 0.06 µg/mL, the MIC ([1]; Klebsiella pneumoniae, ATCC700603, CAMHB, mode of at least three replicates (RO7036668 one replicate)) was greater than 64 µg/mL and the “MIC 100%” value ([1]; Study LGC294355) was greater than 64 µg/mL. The “MIC 100%” value ([1]; Study LGC295147) was greater than 64 µg/mL, the “MIC 100%” value ([1]; Study LGC299544) was greater than 64 µg/mL and the “MIC 100%” value ([1]; Study LGC308175) was greater than 64 µg/mL.
